The supplement of paper PMC11061612

Columns and labels:
Experiment in all cases: combination Emax (second highest fraction inhibited in the dose matrix, 72 h); higher = more inhibition; extreme values may be limits of the assay
[1] = tested on: B-CPAP (Thyroid Gland Carcinoma)
Summary of the method: (§1)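 Cell lines in DMEM/F12 or RPMI with 10% FBS were plated in 1536-well plates, held 24 hours at 37°C, 5% CO2, then given two-drug dose matrices for 72 hours (DMSO typically 0.2%). Viability was read by CellTiter-Glo 2.0 luminescence and scaled as inhibition from 0 (vehicle wells) to 1 (blank wells). Combination Emax is the second-highest inhibition in the matrix; Bliss excess is observed combination effect minus expected EA + EB − EA·EB, EA and EB being single-agent effects.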

[2] = tested on: CCRF-CEM (T-Lymphoblastic Leukemia)
Summary of the method: as §1

[3] = tested on: DEL (T-Cell Non-Hodgkin's Lymphoma)
Summary of the method: as §1

[4] = tested on: ES4 (Ewing's Sarcoma)
Summary of the method: as §1

[5] = tested on: HCC1806 (Breast Carcinoma)
Summary of the method: as §1

[6] = tested on: HOS (Osteosarcoma)
Summary of the method: as §1

[7] = tested on: HT-1376 (Bladder Carcinoma)
Summary of the method: as §1

[8] = tested on: Hs-578-T (Breast Carcinoma)
Summary of the method: as §1

[9] = tested on: KP-1N (Pancreatic Carcinoma)
Summary of the method: as §1

[10] = tested on: KURAMOCHI (Ovarian Carcinoma)
Summary of the method: as §1

[11] = tested on: LS-180 (Colorectal Carcinoma)
Summary of the method: as §1

[12] = tested on: ME-1 (Acute Myeloid Leukemia)
Summary of the method: as §1

[13] = tested on: RC-K8 (B-Cell Non-Hodgkin's Lymphoma)
Summary of the method: as §1

[14] = tested on: RO82-W-1 (Thyroid Gland Carcinoma)
Summary of the method: as §1

[15] = tested on: SK-ES-1 (Ewing's Sarcoma)
Summary of the method: as §1

[16] = tested on: SNU-5 (Gastric Carcinoma)
Summary of the method: as §1

[17] = tested on: T98G (Glioblastoma)
Summary of the method: as §1

[18] = tested on: TCCSUP (Bladder Carcinoma)
Summary of the method: as §1

[19] = tested on: TE-15 (Esophageal Squamous Cell Carcinoma)
Summary of the method: as §1

[20] = tested on: UM-UC-3 (Bladder Carcinoma)
Summary of the method: as §1

Row | Structure (SMILES) | combination Emax [1] | combination Emax [2] | combination Emax [3] | combination Emax [4] | combination Emax [5] | combination Emax [6] | combination Emax [7] | combination Emax [8] | combination Emax [9] | combination Emax [10] | combination Emax [11] | combination Emax [12] | combination Emax [13] | combination Emax [14] | combination Emax [15] | combination Emax [16] | combination Emax [17] | combination Emax [18] | combination Emax [19] | combination Emax [20]
1 | CN(C)CCCOc1ccc(-c2ccc3ncc4c(c3c2)n(C2CCOCC2)c(=O)n4C)cn1 [AZD0156] + O=C(c1cc(Cc2n[nH]c(=O)c3ccccc23)ccc1F)N1CCN(C(=O)C2CC2)CC1 [Olaparib] (first compound max 3 µM, partner max 3 µM) | 0.34 | 0.46 | 0.78 | 0.658 | 0.479 | 0.241 | 0.115 | 0.519 | 0.277 | 0.152 | 0.24 | 0.224 | 0.318 | 0.313 | 0.804 | 0.439 | 0.287 | 0.279 | 0.253 | 0.289
2 | C=CCn1c(=O)c2cnc(Nc3ccc(N4CCN(C)CC4)cc3)nc2n1-c1cccc(C(C)(C)O)n1 [AZD1775] + C1CN(CCC1(C(=O)N[C@@H](CCO)C2=CC=C(C=C2)Cl)N)C3=NC=NC4=C3C=CN4 [Capivasertib] (first compound max 3 µM, partner max 3 µM) | 0.815 | 1 | 1 | 0.521 | 0.933 | 0.831 | 0.355 | 0.841 | 0.633 | 0.625 | 0.734 | 0.685 | 0.652 | 0.471 | 0.883 | 0.7 | 0.785 | 0.787 | 0.724 | 0.464
3 | CN(CCO)CC[C@H](CSc1ccccc1)Nc1ccc(S(=O)(=O)NC(=O)c2ccc(N3CCC([C@@H](O)c4ccccc4-c4ccc(Cl)cc4)CC3)cc2)cc1S(=O)(=O)C(F)(F)F [AZD4320] + C1CN(CCC1(C(=O)N[C@@H](CCO)C2=CC=C(C=C2)Cl)N)C3=NC=NC4=C3C=CN4 [Capivasertib] (first compound max 1 µM, 7x7, partner max 3 µM) | 0.284 | 1 | 0.192 | 0.564 | 0.212 | 0.229 | 0.74 | 0.639 | 0.0744 | 0.351 | 0.213 | 1 | 0.552 | 0.311 | 0.94 | 0.447 | 0.249 | 0.168 | 0.141 | 0.196
4 | CN(CCO)CC[C@H](CSc1ccccc1)Nc1ccc(S(=O)(=O)NC(=O)c2ccc(N3CCC([C@@H](O)c4ccccc4-c4ccc(Cl)cc4)CC3)cc2)cc1S(=O)(=O)C(F)(F)F [AZD4320] + C=CCn1c(=O)c2cnc(Nc3ccc(N4CCN(C)CC4)cc3)nc2n1-c1cccc(C(C)(C)O)n1 [AZD1775] (first compound max 1 µM, partner max 1 µM) | 0.632 | 1 | 1 | 1 | 0.972 | 0.379 | 0.718 | 0.928 | 0.398 | 0.807 | 0.422 | 1 | 0.934 | 0.618 | 1 | 0.658 | 0.892 | 0.689 | 0.615 | 0.276
5 | CN(CCO)CC[C@H](CSc1ccccc1)Nc1ccc(S(=O)(=O)NC(=O)c2ccc(N3CCC([C@@H](O)c4ccccc4-c4ccc(Cl)cc4)CC3)cc2)cc1S(=O)(=O)C(F)(F)F [AZD4320] + CCN(CCO)CCCOc1ccc2c(Nc3cc(CC(=O)Nc4cccc(F)c4)[nH]n3)ncnc2c1 [AZD2811] (first compound max 1 µM, 7x7, partner max 1 µM) | 0.57 | 1 | 0.804 | 0.631 | 0.201 | 0.12 | 0.784 | 0.918 | 0.0993 | 0.327 | 0.18 | 1 | 0.917 | 0.46 | 1 | 0.45 | 0.554 | 0.543 | 0.141 | 0.226
6 | COc1nnc2ccc(N3CCC(c4ccc(OCCN5CCN(C)C(=O)[C@H]5C)cc4)CC3)nn12 [AZD5153] + CN(CC[C@H](CSC1=CC=CC=C1)NC2=C(C=C(C=C2)S(=O)(=O)NC(=O)C3=CC=C(C=C3)N4CCC(CC4)[C@H](C5=CC=CC=C5C6=CC=C(C=C6)Cl)O)S(=O)(=O)C(F)(F)F)CCO [AZD4320] (first compound max 1 µM, 7x7, partner max 1 µM) | 0.925 |  | 0.844 | 0.795 | 0.588 |  |  |  | 0.53 |  |  |  | 1 |  | 0.871 | 0.506 |  | 0.297 |  | 
7 | Cc1c2c(nn1C)CSCc1cc(n(C)n1)CSc1cc(c3ccccc3c1)OCCCc1c(C(=O)O)n(C)c3c-2c(Cl)ccc13 [AZD5991] + C1CN(CCC1(C(=O)N[C@@H](CCO)C2=CC=C(C=C2)Cl)N)C3=NC=NC4=C3C=CN4 [Capivasertib] (first compound max 1 µM, 7x7, partner max 3 µM) |  | 0.637 | 1 | 0.19 | 0.528 | 0.242 | 0.146 | 0.747 | 0.249 | 0.307 | 0.315 | 0.772 | 0.161 | 0.246 | 0.854 | 0.288 | 0.3 | 0.25 | 0.36 | 0.216
8 | Cc1c2c(nn1C)CSCc1cc(n(C)n1)CSc1cc(c3ccccc3c1)OCCCc1c(C(=O)O)n(C)c3c-2c(Cl)ccc13 [AZD5991] + C[C@@H](Nc1cc(F)cc(F)c1)c1cc(C(=O)N(C)C)cc2c(=O)cc(N3CCOCC3)oc12 [AZD8186] (first compound max 1 µM, 7x7, partner max 3 µM) | 0.227 | 0.27 | 1 | 0.305 | 0.6 | 0.174 | 0.225 | 0.738 | 0.274 | 0.404 |  | 0.787 | 0.2 | 0.367 | 0.866 | 0.427 | 0.501 | 0.227 | 0.223 | 0.311
9 | Cc1c2c(nn1C)CSCc1cc(n(C)n1)CSc1cc(c3ccccc3c1)OCCCc1c(C(=O)O)n(C)c3c-2c(Cl)ccc13 [AZD5991] + Cn1cnc2c(F)c(Nc3ccc(Br)cc3Cl)c(C(=O)NOCCO)cc21 [Selumetinib] (first compound max 1 µM, 7x7, partner max 3 µM) | 0.299 | 0.325 | 1 |  | 0.667 | 0.229 | 0.272 | 0.54 | 0.189 | 0.485 | 0.589 | 0.906 | 0.239 | 0.311 | 0.809 | 0.495 | 0.249 | 0.227 | 0.317 | 0.28
10 | COc1cccc(OCCCN)c1-c1cc(Nc2cnc(C#N)cn2)n[nH]1 [Prexasertib] + O=C(c1cc(Cc2n[nH]c(=O)c3ccccc23)ccc1F)N1CCN(C(=O)C2CC2)CC1 [Olaparib] (first compound max 1 µM, 7x7, partner max 10 µM) | 0.763 | 1 | 1 | 0.887 | 0.999 | 0.854 | 0.479 | 0.925 | 0.332 | 0.68 | 0.724 | 0.61 |  | 0.45 | 1 | 0.968 | 0.757 | 0.731 | 0.842 | 0.629
11 | COc1cc2c(cc1OCCCCCOc1cc3c(cc1OC)C(=O)N1C=C(C)C[C@H]1C=N3)N=C[C@@H]1CC(C)=CN1C2=O [SG3199] + O=C(c1cc(Cc2n[nH]c(=O)c3ccccc23)ccc1F)N1CCN(C(=O)C2CC2)CC1 [Olaparib] (first compound max 0.001 µM, 7x7, partner max 10 µM) | 0.217 | 0.257 | 0.597 | 0.566 | 0.212 | 0.105 | 0.121 | 0.256 | 0.18 | 0.129 | 0.181 | 0.163 |  | 0.17 | 0.917 | 0.129 | 0.114 | 0.162 | 0.166 | 0.132
12 | CCc1c2c(nc3ccc(O)cc13)-c1cc3c(c(=O)n1C2)COC(=O)[C@]3(O)CC [SN-38] + CN(C)CCCOc1ccc(-c2ccc3ncc4c(c3c2)n(C2CCOCC2)c(=O)n4C)cn1 [AZD0156] (first compound max 0.3 µM, 7x7, partner max 1 µM) | 0.867 | 1 | 1 | 0.947 | 0.91 | 0.893 | 0.118 | 0.635 | 0.627 | 0.659 | 0.713 | 0.571 |  | 0.46 | 1 | 0.945 | 0.546 | 0.743 | 0.819 | 0.978
13 | C[C@@H](c1ccc2nccn2c1)n1nnc2ncc(-c3cnn(C)c3)nc21 [Savolitinib] + CN(CC[C@H](CSC1=CC=CC=C1)NC2=C(C=C(C=C2)S(=O)(=O)NC(=O)C3=CC=C(C=C3)N4CCC(CC4)[C@H](C5=CC=CC=C5C6=CC=C(C=C6)Cl)O)S(=O)(=O)C(F)(F)F)CCO [AZD4320] (first compound max 1 µM, 7x7, partner max 1 µM) | 0.276 |  | 0.217 | 0.557 | 0.436 |  |  |  | 0.175 |  |  |  | 0.504 |  | 0.758 | 1 |  | 0.194 |  | 
